Several values for one entry are separate records, joined by “and”; a condition that tells them apart may be missing. Identical values can stand only once. Toxic doses and inconclusive results are not listed. Rule for the calls: active = survival T/C of 150% or more; inactive = T/C below 125% in these data.
Test system: C57BL/6 mice, intracerebral ependymoblastoma, median survival T/C
Assay: NCI In Vivo Anticancer Drug Screen. Data for tumor model Ependymoblastoma (intracerebral) in C57BL/6 mice
Conditions: endpoint: median survival time, higher = longer survival
Description: The antitumor activity of compounds was measured in mice bearing transplantable tumors. Survival or tumor size were measured and the results are expressed as the measurement made in the treated group (T) divided by the measurement made in the vehicle treated control group (C). The tumor model used in this assay is Ependymoblastoma (intracerebral) in C57BL/6 mice

[1] = dose: 8.0 mg/kg/injection, schedule: Q01DX005 (ip), vehicle: Klucel (hydroxypropylcellulose) (HPC)
[2] = dose: 8.0 mg/kg/injection, schedule: Q01DX005 (ip), vehicle: saline
[3] = dose: 16.0 mg/kg/injection, schedule: Q01DX005 (ip), vehicle: Klucel (hydroxypropylcellulose) (HPC)
[4] = dose: 16.0 mg/kg/injection, schedule: Q01DX005 (ip), vehicle: saline
[5] = dose: 32.0 mg/kg/injection, schedule: Q01DX005 (ip), vehicle: Klucel (hydroxypropylcellulose) (HPC)
[6] = dose: 32.0 mg/kg/injection, schedule: Q01DX005 (ip), vehicle: saline
[7] = dose: 5.0 mg/kg/injection, schedule: Q01DX005 (ip), vehicle: saline
[8] = dose: 10.0 mg/kg/injection, schedule: Q01DX005 (ip), vehicle: saline
[9] = dose: 20.0 mg/kg/injection, schedule: Q01DX005 (ip), vehicle: saline
[10] = dose: 64.0 mg/kg/injection, schedule: Q01DX005 (ip), vehicle: Klucel (hydroxypropylcellulose) (HPC)

Measured: T/C

NNC(=O)c1ccncc1
inactive: dose: 28.75 mg/kg/injection, schedule: Q01DX005 (ip), vehicle: saline 94 % of control | dose: 57.5 mg/kg/injection, schedule: Q01DX005 (ip), vehicle: saline 102 % of control | dose: 115.0 mg/kg/injection, schedule: Q01DX005 (ip), vehicle: saline 105 % of control

COC1C(CO)OC(n2cnc3c(=S)nc(N)[nH]c32)C1O (stereo not given)
inactive: dose: 100.0 mg/kg/injection, schedule: Q01DX005 (ip), vehicle: Klucel (hydroxypropylcellulose) (HPC) 91 % of control

O=C(NP(=O)(N1CC1)N1CC1)c1cc(I)ccc1I
inactive: [1] 106 % of control | dose: 8.0 mg/kg/injection, schedule: Q01DX005 (ip), vehicle: saline with Tween-80 91 % of control and 104 % of control | [2] 102 % of control and 107 % of control | [3] 113 % of control | dose: 16.0 mg/kg/injection, schedule: Q01DX005 (ip), vehicle: saline with Tween-80 101 % of control and 106 % of control | [4] 102 % of control and 119 % of control | [5] 120 % of control | dose: 32.0 mg/kg/injection, schedule: Q01DX005 (ip), vehicle: saline with Tween-80 101 % of control | [6] 113 % of control | dose: 64.0 mg/kg/injection, schedule: Q01DX005 (ip), vehicle: saline 119 % of control and 124 % of control

CCC(=O)NC1=C(N2CC2C)C(=O)C(NC(=O)CC)=C(N2CC2C)C1=O (stereo not given)
inactive: dose: 6.25 mg/kg/injection, schedule: Q01DX009 (ip), vehicle: Klucel (hydroxypropylcellulose) (HPC) 105 % of control

S=c1nc[nH]c2nc[nH]c12
inactive: dose: 10.0 mg/kg/injection, schedule: Q01DX001 (ip), vehicle: Klucel (hydroxypropylcellulose) (HPC) 103 % of control | dose: 10.0 mg/kg/injection, schedule: Q01DX005 (ip), vehicle: Klucel (hydroxypropylcellulose) (HPC) 89 % of control and 103 % of control | dose: 20.0 mg/kg/injection, schedule: Q01DX001 (ip), vehicle: Klucel (hydroxypropylcellulose) (HPC) 91 % of control | dose: 20.0 mg/kg/injection, schedule: Q01DX005 (ip), vehicle: Klucel (hydroxypropylcellulose) (HPC) 107 % of control and 122 % of control | dose: 40.0 mg/kg/injection, schedule: Q01DX001 (ip), vehicle: Klucel (hydroxypropylcellulose) (HPC) 109 % of control | dose: 80.0 mg/kg/injection, schedule: Q01DX001 (ip), vehicle: Klucel (hydroxypropylcellulose) (HPC) 113 % of control | dose: 160.0 mg/kg/injection, schedule: Q01DX001 (ip), vehicle: Klucel (hydroxypropylcellulose) (HPC) 102 % of control

CC(=O)CC(c1ccccc1)c1c(O)c2ccccc2oc1=O (stereo not given)
inactive: dose: 0.09 mg/kg/injection, schedule: Q01DX005 (ip), vehicle: saline 93 % of control | dose: 0.18 mg/kg/injection, schedule: Q01DX005 (ip), vehicle: saline 115 % of control | dose: 0.36 mg/kg/injection, schedule: Q01DX005 (ip), vehicle: saline 98 % of control | dose: 1.44 mg/kg/injection, schedule: Q01DX005 (ip), vehicle: saline 87 % of control

F
inactive: [4] 98 % of control | [6] 96 % of control

Cc1cn(C2CC(O)C(CO)O2)c(=O)[nH]c1=O (stereo not given)
inactive: dose: 64.0 mg/kg/injection, schedule: Q01DX005 (ip), vehicle: saline with Tween-80 92 % of control and 97 % of control | dose: 100.0 mg/kg/injection, schedule: Q01DX005 (ip), vehicle: saline with Tween-80 91 % of control | dose: 128.0 mg/kg/injection, schedule: Q01DX005 (ip), vehicle: saline with Tween-80 90 % of control and 105 % of control | dose: 200.0 mg/kg/injection, schedule: Q01DX005 (ip), vehicle: saline with Tween-80 98 % of control | dose: 256.0 mg/kg/injection, schedule: Q01DX005 (ip), vehicle: saline with Tween-80 95 % of control and 87 % of control | dose: 400.0 mg/kg/injection, schedule: Q01DX005 (ip), vehicle: saline with Tween-80 96 % of control | dose: 512.0 mg/kg/injection, schedule: Q01DX005 (ip), vehicle: saline with Tween-80 100 % of control | dose: 800.0 mg/kg/injection, schedule: Q01DX005 (ip), vehicle: saline with Tween-80 98 % of control | dose: 1024.0 mg/kg/injection, schedule: Q01DX005 (ip), vehicle: saline with Tween-80 100 % of control and 101 % of control | dose: 1600.0 mg/kg/injection, schedule: Q01DX005 (ip), vehicle: saline with Tween-80 98 % of control

O=c1[nH]cc(F)c(=O)[nH]1
inactive: dose: 2.0 mg/kg/injection, schedule: Q01DX005 (ip), vehicle: saline 113 % of control | dose: 2.5 mg/kg/injection, schedule: Q01DX005 (ip), vehicle: saline 101 % of control | dose: 4.0 mg/kg/injection, schedule: Q01DX005 (ip), vehicle: saline 108 % of control | [7] 94 % of control | [2] 97 % of control | [8] 97 % of control | [4] 106 % of control | [9] 95 % of control | [6] 106 % of control

CC(CN1CC(=O)NC(=O)C1)N1CC(=O)NC(=O)C1 (stereo not given)
inactive: dose: 8.0 mg/kg/injection, schedule: Q01DX001 (ip), vehicle: Klucel (hydroxypropylcellulose) (HPC) 116 % of control | [1] 91 % of control and 112 % of control | dose: 16.0 mg/kg/injection, schedule: Q01DX001 (ip), vehicle: Klucel (hydroxypropylcellulose) (HPC) 87 % of control | [3] 110 % of control | dose: 32.0 mg/kg/injection, schedule: Q01DX001 (ip), vehicle: Klucel (hydroxypropylcellulose) (HPC) 89 % of control and 122 % of control | [5] 105 % of control | dose: 64.0 mg/kg/injection, schedule: Q01DX001 (ip), vehicle: Klucel (hydroxypropylcellulose) (HPC) 98 % of control and 118 % of control | [10] 90 % of control | dose: 128.0 mg/kg/injection, schedule: Q01DX001 (ip), vehicle: Klucel (hydroxypropylcellulose) (HPC) 95 % of control

Nc1nc(=S)c2ncn(C3OC(COC(=O)c4ccc(Cl)cc4)C(OC(=O)c4ccc(Cl)cc4)C3OC(=O)c3ccc(Cl)cc3)c2[nH]1 (stereo not given)
inactive: dose: 18.75 mg/kg/injection, schedule: Q01DX005 (ip), vehicle: Klucel (hydroxypropylcellulose) (HPC) 96 % of control | dose: 37.5 mg/kg/injection, schedule: Q01DX005 (ip), vehicle: Klucel (hydroxypropylcellulose) (HPC) 87 % of control

Cc1ncc([N+](=O)[O-])n1CCO
inactive: [10] 103 % of control | dose: 128.0 mg/kg/injection, schedule: Q01DX005 (ip), vehicle: Klucel (hydroxypropylcellulose) (HPC) 99 % of control | dose: 256.0 mg/kg/injection, schedule: Q01DX005 (ip), vehicle: Klucel (hydroxypropylcellulose) (HPC) 107 % of control | dose: 512.0 mg/kg/injection, schedule: Q01DX005 (ip), vehicle: Klucel (hydroxypropylcellulose) (HPC) 111 % of control | dose: 1024.0 mg/kg/injection, schedule: Q01DX005 (ip), vehicle: Klucel (hydroxypropylcellulose) (HPC) 94 % of control

O=C1N(Cl)C(=O)C(c2ccc(Cl)cc2)(c2ccc(Cl)cc2)N1Cl
inactive: dose: 1.56 mg/kg/injection, schedule: Q01DX005 (ip), vehicle: Klucel (hydroxypropylcellulose) (HPC) 105 % of control | dose: 3.12 mg/kg/injection, schedule: Q01DX005 (ip), vehicle: Klucel (hydroxypropylcellulose) (HPC) 110 % of control | dose: 6.25 mg/kg/injection, schedule: Q01DX005 (ip), vehicle: Klucel (hydroxypropylcellulose) (HPC) 99 % of control | dose: 12.5 mg/kg/injection, schedule: Q01DX005 (ip), vehicle: Klucel (hydroxypropylcellulose) (HPC) 112 % of control | dose: 25.0 mg/kg/injection, schedule: Q01DX005 (ip), vehicle: Klucel (hydroxypropylcellulose) (HPC) 110 % of control

c1ccc([C@H]2CN3CCSC3=N2)cc1
inactive: [7] 103 % of control | dose: 5.0 mg/kg/injection, schedule: Q01DX009 (ip), vehicle: saline 99 % of control | [8] 96 % of control | dose: 10.0 mg/kg/injection, schedule: Q01DX009 (ip), vehicle: saline 113 % of control | [9] 101 % of control | dose: 20.0 mg/kg/injection, schedule: Q01DX009 (ip), vehicle: saline 107 % of control | dose: 40.0 mg/kg/injection, schedule: Q01DX005 (ip), vehicle: saline 101 % of control
